# Read-outs that look alike come from different tables or passages of the source. Where a SMILES comes first, the peptide text is derived from it. [ ]: non-standard residue; d: D form. Gly(Nα-oleyl) = CCCCCCCC/C=C\CCCCCCCCNCC(=O)O; N(2-ethylhexyl)Gly = CCCCC(CC)CNCC(=O)O; Gly(N-dodecyl) = CCCCCCCCCCCCNCC(=O)O; N(CH(CH2OH)2)Gly = O=C(O)CNC(CO)CO; N(octyl)Gly = CCCCCCCCNCC(=O)O; NDecylGly = CCCCCCCCCCNCC(=O)O
# What was measured:
# [1] = Apparent particle pKa, TNS fluorescence assay; type: physicochemical; conditions: Table 5; apparent particle pKa of delivery vehicle
# Protocol: The apparent particle pKa was assessed by a TNS fluorescence assay. Briefly, particles were diluted to 130 uM total lipid in TNS buffer ranging in pH 3-11 for 10 minutes with […] of TNS probe. The fluorescence was measured at room temperature in a plate reader ex 320/em 445. Fluorescence intensity was normalized to the minimal and maximal values and the pKa was determined by a 3 parameter fit to determine the half maximum of the curve.
# [2] = Particle size and polydispersity (PDI) of delivery vehicles by dynamic light scattering; type: physicochemical; conditions: Table 5; delivery vehicle comprising the peptoid, Formulation D22, fLuc mRNA
# Protocol: The resulting delivery vehicle complexes were evaluated by dynamic light scattering (DLS) to determine the volume average particle size/diameter (nm) and the size polydispersity index (PDI) within the delivery vehicle complex.
# Particle size. Particle sizes and size distributions were measured using a Wyatt DynaPro® Plate Reader III. In general, formulated samples were diluted to 2 ng/μL in 100 µL PBS. Data is reported as the hydrodynamic diameter (in nm) of the cumulant fit of the correlation function, and the polydispersity of that measurement.
# (§1) In one particular instance, the size and polydispersity (PDI) of delivery vehicles was measured by dynamic light scattering in PBS using a DynaPro® plate reader III. The zeta potential of delivery vehicles was determined using Nano-ZS™ particle analyzer. Zeta sample was diluted to 30 uM total lipid in a weakly buffered solution of 10 mM HEPES, 10 mM MES, 10 mM ammonium acetate pH 7. Measurements were collected in duplicate for over 30 run with the voltage manually set to […]
# [3] = Percent encapsulated mRNA, RiboGreen assay; type: physicochemical; conditions: Table 5; delivery vehicle comprising the peptoid, Formulation D22, fLuc mRNA
# Protocol: Percent encapsulation. The percentage of mRNA encapsulated within the delivery vehicle complexes containing Fluc mRNA was determined using a modified RiboGreen® assay. In general, formulated mRNA samples were diluted to 500 ng/ml in Tris-EDTA buffer with or without Triton-X™. RiboGreen® (Invitrogen) was added at a 200-fold dilution, and the plate was incubated for 5 minutes. Fluorescence was measured at Ex. […]/Em. 520 nm and encapsulated mRNA was calculated by taking the ratio of fluorescence for non-lysed particles versus lysed particles.
# The mRNA concentration and the percentage of encapsulated mRNA were determined using a fluorescence-based Quant-iT™ RiboGreen® RNA Reagent Kit using a literature procedure. To determine the mRNA concentration, delivery vehicles were incubated with 2% Triton™ X-100 for 10 min to release entrapped mRNA, followed by addition of RiboGreen® RNA reagent. The fluorescence intensity of mRNA-RiboGreen® reagent complex (excitation at 485 nm and emission at 530 nm) was detected using a microplate reader. The ratio of fluorescence without and with Triton™ X-100 were used to calculate the percentage of encapsulated mRNA.
# [4] = RBC hemolysis as metric for fusogenicity; type: cell-based; conditions: sheep red blood cells (RBCs), 5% v/v, Table 5, delivery vehicle, 37° C. 45 min
# Protocol: RBC hemolysis was used as a metric for fusogenicity of LNPs at low pH. […] Particles were diluted to […] total lipid in well with 5% RBC solution and incubated at 37° C. for 45 min. Supernatant was collected and absorbance read on a microplate reader at 425 nm. Fusion was normalized to a fully lysed sample with 2% Triton™ and a buffer-only control. % hemolysis=100*[(ABS T-background)−(ABS sample-background)/(ABS T-background)].
# [5] = Zeta potential of delivery vehicles; type: physicochemical; conditions: Table 5; delivery vehicle, pH 7 buffer; in mV (unit assumed)
# Protocol: as §1
# [6] = pH 5, read-out: Hemolysis at pH 5
# [7] = pH 7, read-out: Hemolysis at pH 7
SMILES,pKa (TNS) [1],PDI [2],Particle Size (nm) [2] [nm],% Encapsulation [3] [%],"hemolysis at 45 min, 150 mM total lipid [4, 6] [%]","hemolysis at 45 min, 150 mM total lipid [4, 7] [%]",Zeta Potential [5]
CCCCCCCC/C=C\CCCCCCCCN(CC(=O)N(CCCCCCCCCC)CC(=O)N(CCCCCCCC/C=C\CCCCCCCC)CC(=O)N(CCCCCCCCCC)CC(N)=O)C(=O)CNC(CO)CO [Compound 6],6.373,0.39,71.3,85.9,21.5,60.6,−0.785
CCCCCCCC/C=C\CCCCCCCCN(CC(N)=O)C(=O)CN(CCCCCCCCCC)C(=O)CN(CCCCCCCC/C=C\CCCCCCCC)C(=O)CNC(CO)CO [Compound 7] (H-[N(CH(CH2OH)2)Gly][Gly(Nα-oleyl)][NDecylGly][Gly(Nα-oleyl)]-NH2),6.283,0.13,62.3,86.3,6.1,23.8,−2.31
CCCCCCCC/C=C\CCCCCCCCN(CC(=O)N(CCCCCC)CC(=O)N(CCCCCC)CC(=O)N(CCCCCC)CC(=O)N(CCCCCCCC/C=C\CCCCCCCC)CC(=O)N(CCCCCC)CC(=O)N(CCCCCC)CC(=O)N(CCCCCC)CC(N)=O)C(=O)CNC(CO)CO [Compound 9],5.906,0.14,94.9,95.2,1.1,0.1,−1.6
CCCCCCCCN(CC(N)=O)C(=O)CN(CCCCCC)C(=O)CN(CCCCCC)C(=O)CN(CCCCCC)C(=O)CN(CCCCCC)C(=O)CN(CCCCCC)C(=O)CN(CCCCCC)C(=O)CN(CCCCCCCC)C(=O)CNC(CO)CO [Compound 10],6.052,0.3,122.5,97.0,1.1,0,−2.71
CCCCCCN(CC(N)=O)C(=O)CN(CC(CC)CCCC)C(=O)CN(CCCCCC)C(=O)CN(CC(CC)CCCC)C(=O)CN(CCCCCC)C(=O)CN(CC(CC)CCCC)C(=O)CN(CCCCCC)C(=O)CN(CC(CC)CCCC)C(=O)CNC(CO)CO (centres unmarked) [Compound 13],5.686,0.102,122.4,82.0,1.8,0.6,−5.17
CCCCCCN(CC(N)=O)C(=O)CN(CCCCCC)C(=O)CN(CCCCCC)C(=O)CN(CCCCCC)C(=O)CN(CCCCCC)C(=O)CN(CCCCCC)C(=O)CN(CCCCCC)C(=O)CN(CCCCCC)C(=O)CNC(CO)CO [Compound 14],6.825,Multimodal,2228.3,57.3,9.1,0.2,−3.14
CCCCCCCCCCCCN(CC(=O)N(CCCCCC)CC(=O)N(CCCCCC)CC(=O)N(CC(=O)N(CCCCCCCCCCCC)CC(=O)N(CCCCCC)CC(=O)N(CCCCCC)CC(N)=O)CC(CC)CCCC)C(=O)CN(CC(CC)CCCC)C(=O)CNC(CO)CO (centres unmarked) [Compound 15],5.909,0.111,106.6,84.5,0.9,0.6,−8
CCCCCCCCCCCCN(CC(N)=O)C(=O)CN(CCCCCCCCCCCC)C(=O)CN(CCCCCCCCCCCC)C(=O)CN(CCCCCCCCCCCC)C(=O)CN(CCCCCCCCCCCC)C(=O)CN(CCCCCCCCCCCC)C(=O)CNC(CO)CO [Compound 16] (H-[N(CH(CH2OH)2)Gly][Gly(N-dodecyl)][Gly(N-dodecyl)][Gly(N-dodecyl)][Gly(N-dodecyl)][Gly(N-dodecyl)][Gly(N-dodecyl)]-NH2),5.554,0.24,93.1,30.6,4.1,2.2,−3.58
CCCCCCCCCCCCN(CC(=O)N(CCCCCC)CC(N)=O)C(=O)CN(CCCCCCCCCCCC)C(=O)CN(CC(CC)CCCC)C(=O)CN(CCCCCC)C(=O)CN(CCCCCCCCCCCC)C(=O)CN(CCCCCCCCCCCC)C(=O)CN(CC(CC)CCCC)C(=O)CNC(CO)CO (centres unmarked) [Compound 17],5.656,0.11,96.7,50.3,2.1,0.3,−17.8
CCCCCCCC/C=C\CCCCCCCCN(CC(N)=O)C(=O)CN(CCCCCCCC)C(=O)CN(CCCCCCCC/C=C\CCCCCCCC)C(=O)CNC(CO)CO [Compound 20] (H-[N(CH(CH2OH)2)Gly][Gly(Nα-oleyl)][N(octyl)Gly][Gly(Nα-oleyl)]-NH2),5.773,0.18,65.4,70.1,16.7,33.3,3.41
CCCCCCCCCCCCN(CC(N)=O)C(=O)CN(CCCCCCCCCCCC)C(=O)CN(CCCCCCCCCCCC)C(=O)CN(CCCCCCCCCCCC)C(=O)CNC(CO)CO [Compound 21],5.406,0.262,66.4,81.2,35.8,59.5,2.7
CCCCCCCCCCCCN(CC(=O)N(CCCCCCCCCC)CC(=O)N(CCCCCCCCCCCC)CC(=O)N(CCCCCCCCCC)CC(N)=O)C(=O)CNC(CO)CO [Compound 22],5.888,0.179,51.5,83.3,58.9,81.5,4.24
CCCCC(CC)CN(CC(N)=O)C(=O)CN(CC(CC)CCCC)C(=O)CN(CC(CC)CCCC)C(=O)CN(CC(CC)CCCC)C(=O)CNC(CO)CO (centres unmarked) [Compound 24],6.43,0.12,66.9,97.6,100,99.9,−1.59
CCCCCCCCCCCCN(CC(=O)N(CCCCCCCCCC)CC(N)=O)C(=O)CN(CCCCCCCCCC)C(=O)CN(CCCCCCCCCC)C(=O)CN(CCCCCCCCCCCC)C(=O)CN(CCCCCCCCCC)C(=O)CNC(CO)CO [Compound 27] (H-[N(CH(CH2OH)2)Gly][NDecylGly][Gly(N-dodecyl)][NDecylGly][NDecylGly][Gly(N-dodecyl)][NDecylGly]-NH2),5.48,0.214,107.6,87.9,12.4,9.1,1.84
CCCCCCCCCCN(CC(N)=O)C(=O)CN(CC(CC)CCCC)C(=O)CN(CCCCCCCCCC)C(=O)CN(CCCCCCCCCC)C(=O)CN(CC(CC)CCCC)C(=O)CN(CCCCCCCCCC)C(=O)CNC(CO)CO (centres unmarked) [Compound 43] (H-[N(CH(CH2OH)2)Gly][NDecylGly][N(2-ethylhexyl)Gly][NDecylGly][NDecylGly][N(2-ethylhexyl)Gly][NDecylGly]-NH2),4.595,Multimodal,2058.2,,1.2,0.2,−6.37

# Source: patent US20260083769A1, “2-Aminopropane-1,3-Diol-Capped Cationic Peptoids for Nucleic Acid Delivery” (NUTCRACKER THERAPEUTICS, INC., priority 2022, published 2026)
